Measurements reported in patent US8058425B2, “Purine derivatives as kinase inhibitors” (Eli Lilly and Company, priority 2002, dated 2011).

Tests used:
3T3-L1 adipocytes = test: Glycogen Synthesis Assay; format: cell-based; settings: 0.1 μM
Experimental: The glycogen synthesis assay measures the increase in the production of glycogen both in the absence and in the presence of insulin in the cells. This test is done according to standard protocols. (Berger, J. and Hayes, N. S., Anal. Biochem., 261, 159-163 (1998)). Briefly, 3T3-L1 adipocytes are plated and differentiated in a 96-well plate at 25,000 cells/well. The plate is serum-starved overnight. The serum-starvation media is removed just prior to assay, and the plate is washed with 100 μl/well Krebs-Ringer-Hepes buffer (KRBH). The KRBH is removed and 50 μl of compound (twice the amount of the final concentration) is added to the assay plate. Next, 50 μl of ^14C-labeled glucose is added to the assay plate at 0.1 μCi/well. The plate is then incubated at 37° C. for 2 hours.
The plate is washed with 100 μL/well of PBS, and the cells are lysed with 75 μl/well of 1N NaOH. The plate is heated at 70° C. for 20 minutes. An aliquot (50 μl) of the supernatant is transferred from the assay plate to a Millipore FC filter plate containing 120 μl/well of ice-cold ethanol. The plate is allowed to stand for 2 hours at 4° C. to facilitate precipitation. The ethanol is removed from the filter plate via a vacuum manifold, and the plate is washed with 100 uL/well of ice-cold 70% ethanol. […] The plate was then counted on a Packard Topcount. […]

ZDF rats = test: Glucose Lowering Assay; format: in vivo, rat; settings: oral gavage, dose of 10 mg/kg
Experimental: The glucose lowering assay is an in vivo test that measures the effect of the test compound on blood glucose and triglycerides relative to insulin. (ELDAR-FINKLEMAN, H., et al., Expression and Characterization of Glycogen Synthase Kinase-3 Mutants and Their Effect on Glycogen Synthase Activity in Intact Cells, Proc. Nat. Acad. Sci, 93, 10228-10233 (1996)). Briefly, ZDF rats (Charles River, Inc.) at six weeks of age are housed individually with free access to food and water. Rats are dosed with drug once daily by oral gavage, with the compound prepared as a suspension in 1% caboxymethylcellusolve/0.25% Tween 80 (CMC-Tween). Vehicle controls are dosed with CMC-Tween only. The duration of study varied according to the protocol used, with acute dosing studies lasting one day and dose escalation studies lasting seven days. Body weights and food consumption measurements are also performed once a week for seven-day studies. For measurement of blood glucose and triglycerides, blood samples of 600 μl are collected by the tail snip method. […]

[1] = biological target: T1, GSK-3β kinase activity in brain cortex tissue (Mus musculus, UniProt Q9WV60); test: Ex Vivo Brain Assay; format: in vivo; settings: oral dosing of mice, dose of 20 mg/kg
T1 construct: brain cortex tissue is dissected and homogenized in freshly prepared lysis buffer; from tissue; host or cells: mouse (PDAPP or CD-1) brain cortex, cytosolic homogenate
Experimental: The ex vivo brain assay assesses the GSK-3β kinase activity of the test compound in brain cortex tissue according to standard protocols (Wang, et al., Anal. Biochem., 220, 397-402 (1994)).
The ex vivo GSK-3β kinase activity of a compound is assayed following oral dosing of 2 to 3 month old PDAPP or CD-1 mice. After a 20 mg/kg, 24-hour dose, followed by an additional three-hour dose, brain cortex tissue is dissected and homogenized in freshly prepared lysis buffer (10 mM K2HPO4 pH 7.2, 1 mM EDTA, 5 mM EGTA, 10 mM MgCl2, 50 mM β-Glycerophosphate, 1 mM Na3VO4, 2 mM DTT, 1 μM Microcystin, COMPLETE protease inhibitor tablet, no detergent). Following a thirty-minute incubation on ice, cortex homogenate samples are centrifuged (100,000 G) for 30 minutes at 4° C. (Ahmed, N. N., et al., Oncogene, 8, 1957 […]). The total protein concentration of homogenate is determined using the BCA method (Pierce). GSK-3β activity in cytosolic homogenate from vehicle- and compound-treated mice is then assayed. The kinase reaction occurs in a 50 μl total volume containing 20 mM MOPS pH 7.4, 25 mM β-glycerol phosphate, 5 mM EGTA, 1 mM NA3VO4, 1 mM DTT, 15 mM MgCl2, 100 μM cold ATP, 200 μM CREB peptide, 10 μL cytosolic cortex brain homogenate, and 5 μCi γ-^33P-ATP. […] The following day, the filter plate is read for ^33P on Top Count (Packard). […]

[2] = tested on: AG04160C FAD lymphoblast cells; test: Beta-Catenin Protection Assay; format: cell-based, human; settings: 0.1 μM, 24 hours
Experimental: The beta-catenin assay is the fold induction over basal beta-catenin and is performed according to standard protocols (Hedgepeth, C. M., Dev. Biol., 185, 82-91 (1997); Chen, G., et al., J. Neurochem., 72, 1327-1330 (1999); Hong, M., et al., J. Biol. Chem., 272, 25326-25332 (1997)).
The human familial Alzheimer's disease (FAD) presenilin-1 AG04160C lymphoblast cell line (Coriell Cell Repository, Camden, N.J.) is maintained as a suspension culture in RPMI 1640 (with L-Glutamine) supplemented with 10% fetal bovine serum and 1% penicillin-streptomycin in an atmosphere of 37° C. and 5% CO2. The AG04160C FAD lymphoblast cells are seeded in T-25 cm^2 flasks at 2.5 to 5.0×10^5 cells/ml in a total volume of 10 ml. […] The total protein concentration in whole cell lysate samples is determined using the BCA method (Pierce). Next, 15 μg of sample is loaded on a 10% Bis-Tris NuPage gel and transferred to a pure nitrocellulose membrane followed by β-catenin immunoblot analysis using a (3-catenin specific antibody (Transduction Labs). The β-catenin accumulation/stability is then quantified following densitometry analysis of protein bands (Kodak Digital Science). Final results are reported as fold induction over basal β-catenin. The compound of Example 121 was tested in this assay and induced a 9.8-fold induction of β-catenin at 0.1 μM.

female Fischer 344 rats = test: Bone Deposition; format: in vivo, rat; parameters: key: +: hypertrophy and proliferation of osteoblasts with production of osteoid observed; −: hypertrophy and proliferation of osteoblasts with production of osteoid not observed at this dose; settings: oral gavage daily for 4 days
Experimental: Vehicle or test compound in vehicle (1% Carboxymethylcellulose sodium, 0.25% Polysorbate 80, and 0.05% Dow Corning Antifoam 1510-US in purified water) is administered orally by gavage to female Fischer 344 rats daily for 4 days with three rats in each dosage group. The rats are delivered for necropsy and sections of formalin-fixed, paraffin-embedded bone are examined microscopically to evaluate osteoblast proliferation and deposition of osteoid.
The compounds in the following tables were tested essentially as described above and hypertrophy and proliferation of osteoblasts along surfaces of medullary trabecula and the cortical periosteum accompanied by production of osteoid was observed.
The compound of Example 365 was tested again essentially as described above at 0, 3, 10, and 30 mg/kg with four rats at each dosage level for 21 days. The vertebra and the femur were submitted for analysis of bone mineral density (BMD), bone mineral content (BMC), and cross sectional area following 21 days of daily dosing with the compound of Example 365.

T1 sequence (Q9WV60 whole entry): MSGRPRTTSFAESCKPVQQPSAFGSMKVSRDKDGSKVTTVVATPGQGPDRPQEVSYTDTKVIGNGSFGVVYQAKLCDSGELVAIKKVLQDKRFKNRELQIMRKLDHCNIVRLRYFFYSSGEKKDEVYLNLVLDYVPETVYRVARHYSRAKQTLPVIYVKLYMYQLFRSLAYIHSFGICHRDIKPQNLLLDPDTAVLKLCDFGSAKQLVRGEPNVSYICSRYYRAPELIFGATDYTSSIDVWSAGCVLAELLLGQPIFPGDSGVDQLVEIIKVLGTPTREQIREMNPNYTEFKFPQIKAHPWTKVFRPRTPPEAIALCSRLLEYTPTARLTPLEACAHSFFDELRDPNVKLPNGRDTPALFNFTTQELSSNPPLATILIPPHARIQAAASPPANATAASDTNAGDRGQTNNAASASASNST

Row | inhibition of kinase activity (ex vivo GSK-3β, brain cortex) [1] [%] | fold induction over basal β-catenin [2] [fold] | SMILES | increase of glycogen synthesis (3T3-L1 adipocytes; in the absence of insulin) [fold] | increase of glycogen synthesis (3T3-L1 adipocytes; in the presence of insulin) [fold] | glucose lowering (ZDF rats) [%] | hypertrophy and proliferation of osteoblasts with production of osteoid (female Fischer 344 rats; 50 mg/kg) | hypertrophy and proliferation of osteoblasts with production of osteoid (female Fischer 344 rats; 150 mg/kg)
1 | 30 | 9.8 | Cl.O=C1NC(=O)C(c2cc(F)cc3ccoc23)=C1c1cn2c3c(cccc13)CNCC2 [Example 121, 3-(6,7-dihydro-6H-[1,4]diazepino[6,7,1-hi]indol-1-yl)-4-(5-fluorobenzofur-7-yl)-2,5-dioxopyrrole hydrochloride] | 3.7 | 6.4 | 56 | – | –
2 | – | – | O=C1NC(=O)C(c2cnc3ccccn23)=C1c1cn2c3c(cccc13)CN(c1ncccn1)CC2 [Example 560, 3-(6-(pyrimidin-2-yl)-6,7-dihydro-6H-[1,4]diazepino[6,7,1-hi]indol-1-yl)-4-(imidazo[1,2-a]pyridin-3-yl)pyrrole-2,5-dione] | – | – | – | + | +
